Measurements reported in patent publication US12152016B2, “Aryl hydrocarbon receptor modulators and uses thereof” (Beth Israel Deaconess Medical Center, Inc., priority 2018, dated 2024).
Entries after “also recorded” stand apart in the source; their conditions may differ.

Legend:
[1] = system: AHR-dependent transcription of the CYP1A1 gene; assay: CYP1A1 induction in mouse macrophages; assay type: cell-based
Procedure: (§1) Mouse macrophages were also used to test AHR-dependent transcription of the CYP1A1 gene in vivo. Finally, the activity of exemplary compounds of Formula (I) described herein was tested in the human […] cell line U937. The U937 cell line is derived from a patient with diffuse histiocytic lymphoma. Tables 2-4 summarize structure-activity relationship data collected for exemplary, non-limiting compounds of Formula (I) described herein.

cyp1a1 [2] = assay: cyp1a1 expression by q-PCR in mouse Hepa-1c1c7 cells; assay type: cell-based
Procedure: (§2) RNA was extracted using TRIzol (Invitrogen) following manufacturer's instructions and 0.1 μg of RNA was converted to cDNA using a high capacity cDNA reverse transcription kit (Invitrogen). qPCR was performed on the Applied Biosystems 7900 using TaqMan® Universal PCR Master Mix (Life Technologies) with TaqMan® (Life Technologies) primers against cyp1a1 (Mm00487218_m1), AhR (Mm00478932_m1), IL-22 (Mm01226722_g1), Foxp3 (Mm00475162_m1), IL-10 (Mm01288386_m1), TNF-a (Mm00443258_m1), IFN-r (Mm01168134_m1). The fold increase from experimental groups to control was calculated using the delta-delta CT method with 18S (Mm00446186_m1) as an internal reference gene. In vitro and in vivo activation of the AhR singling pathway was confirmed by q-PCR characterization of cyp1a1. For in vitro induction, mouse Hepa-1c1c7 were cultured to confluence in 24 well plates in full DMEM followed by 24 hours incubation in tryptophan deficient media. Cells were treated with vehicle control (DMSO), ITE, compound 108, or compound 109 (10 nM-10 μM) for 8 hours in tryptophan deficient media. At the end of treatment, cells were lysed in TRIzol for RNA isolation. To monitor in vivo induction, (0.1-1000 μg) compound 109 was given per mouse via oral gavage in 100 μl of vehicle (1% HPMC, 1% polysorbate 80). After 12 hours, liver, colon, spleen and leukocytes from blood were collected and lysed in TRIzol (Invitrogen) for q-PCR analysis.

cyp1a1 [3] = assay: In vivo tissue cyp1a1 induction after oral gavage (PD profile); parameters: species or system mouse; conditions: mice, oral gavage 0.1-1000 μg, 12 hours
Procedure: as §2, with “After 12 hours, liver, colon, spleen and leukocytes from blood were collected and lysed in TRIzol (Invitrogen) for q-PCR analysis.” left out

DSS induced colitis = DSS induced colitis in mice; assay type: in vivo, C57BL/6 mice; conditions: 1 μg/day PO; day 11
Procedure: C57BL/6 (8-10 week, male) mice were administered drinking water supplemented with 3% (wt/vol) dextran sodium sulfate (DSS; MP Biomedicals) for 7 days followed by a 13 day recovery period with unsupplemented drinking water. Compound 109 or compound 108 were suspended in vehicle (1% HPMC and 1% polysorbate 80 in water) and given daily by oral gavage (1 ug/mouse in 100 uL), starting at day 0. Control mice were administered 100 μL vehicle. Body weight and disease activity index (DAI) were recorded daily. DAI was determined by combining scores of weight loss, stool consistency, blood in stool, activity, and appearance.^1 Scores were determined as follows: change in weight (0: <1%, 1: 1-10%, 2: 10-18%, 3: 18-20%); stool consistency (0: normal, 1: loose stools, 2: diarrhea); stool blood (0: negative, 1: trace blood, 2: bloody stool, 3: gross bleeding), activity (0: normal, 1: low activity, 2: hiding, 3: no response to gentle stimuli) and appearance (0: normal, 1: rigor, 2: hunched posture). On day 7 and day 11, mice were euthanized and colon were removed for length measurement, histology, RNA isolation, and lamina propria mononuclear cell (LPMC) extraction as detailed below.
Dissected colon were cut longitudinally and rolled using the Swiss roll method with the distal side in the center.^2,3 Colons were fixed overnight in 10% neutral buffered formalin, processed for paraffin embedding and sectioned at 5 μm thickness. To visualize and quantify the inflammatory response and crypt loss, hematoxylin and eosin staining (H&E) was performed. Briefly, sections were cleared with xylene, rehydrated through alcohol gradient, stained by hematoxylin, washed by acid and ammonium alcohol, rinsed in water and exposed to Eosin followed by dehydrating through graded alcohols and cleared in xylene. All sections were mounted using Permount (Fisher Scientific) and visualized using a BX41 microscope (Olympus). For histological scoring, 3 transverse sections of Swiss roll were chosen and 9 (100×) images were captured for each section. Images were analyzed for inflammation and crypt structure and scored by a blind observer as follows: inflammation (0: rare inflammatory cells in the lamina propria; 1: increased numbers of inflammatory cells in the lamina propria; 2: confluence of inflammatory cells extending in to the submucosa; 3: transmural extension of the inflammatory infiltrate.); crypt loss (0: none; 1: basal 1/3 damaged; 2: basal 2/3 damaged; 3: only surface epithelium intact; 4: entire crypt and epithelium lost). Inflammation and crypt loss were scored separately and multiplied by a factor of 1-4 to adjust for impacted area of tissue section (1: 0-25%; 2: 25.1-50% affected; 3: 50.1-75% affected; 4: >75% affected).^1,4 To examine goblet cell number, sections were stained by a commercial periodic acid-Schiff (PAS) and Alcian blue kit (Fisher Scientific). For quantification, 3 transverse sections of Swiss roll were chosen per colon and 5 random images at 200x were taken per section in the distal region of the colon. Goblet cell number was counted per image and normalized to colon length by a blind observer using image J.^5
Colonic epithelium and lamina propria cells were isolated as previously described.^6,7 Briefly, colons were dissected and washed with HBSS to remove fecal contents. Colon were opened longitudinally and cut into 2 cm segments. […]

[4] = biological target: T1, aryl hydrocarbon receptor (AHR) (Homo sapiens, UniProt P35869); assay: XRE-driven luciferase reporter assay, human HepG2; conditions: for XRE luciferase Emax (footnote c): Emax defined as fold increase at highest concentration tested (10 μM)
T1 sequence (P35869 11-848): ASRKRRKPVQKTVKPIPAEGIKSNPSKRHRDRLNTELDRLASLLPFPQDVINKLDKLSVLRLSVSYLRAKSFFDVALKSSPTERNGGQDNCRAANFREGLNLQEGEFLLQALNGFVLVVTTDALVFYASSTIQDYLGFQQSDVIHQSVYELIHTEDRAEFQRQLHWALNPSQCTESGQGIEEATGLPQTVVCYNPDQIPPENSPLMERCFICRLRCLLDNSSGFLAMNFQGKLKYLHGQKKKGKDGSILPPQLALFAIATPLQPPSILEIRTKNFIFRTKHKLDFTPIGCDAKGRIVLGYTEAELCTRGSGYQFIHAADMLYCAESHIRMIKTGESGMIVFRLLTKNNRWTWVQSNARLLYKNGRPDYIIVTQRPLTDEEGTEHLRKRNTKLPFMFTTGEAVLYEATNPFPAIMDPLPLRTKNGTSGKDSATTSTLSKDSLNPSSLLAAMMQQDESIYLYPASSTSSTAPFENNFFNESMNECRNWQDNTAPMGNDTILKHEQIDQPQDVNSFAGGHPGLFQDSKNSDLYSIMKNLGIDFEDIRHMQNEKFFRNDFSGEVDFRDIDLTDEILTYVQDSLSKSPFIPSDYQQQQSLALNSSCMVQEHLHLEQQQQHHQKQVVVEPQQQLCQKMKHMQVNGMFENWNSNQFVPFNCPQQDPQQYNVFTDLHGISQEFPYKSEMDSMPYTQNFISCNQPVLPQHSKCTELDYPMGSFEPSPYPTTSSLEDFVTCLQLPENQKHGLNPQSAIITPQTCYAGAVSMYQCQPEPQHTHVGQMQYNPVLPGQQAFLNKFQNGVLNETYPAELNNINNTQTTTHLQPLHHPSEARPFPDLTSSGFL
Procedure: The Human HepG2 cell line is a human liver cancer cell line, and provide a relevant in vitro AHR activity model. These Hep2G cells have been modified to stably express an AHR-responsive (XRE) firefly luciferase reporter gene to give Hep2G-XRE cells. The expression of luciferase should primarily reflect AHR-dependent transcription controlled by XRE.
Transfected cells were treated with AhR agonist (10^−5-10^−12) for 4.5 h in full medium. Cells were lysed and luciferase was activated using the Luciferase Assay System (Promega). Luminescence signals were measured with a FluroStar Omega microplate reader. Luminescence signals of compound treated groups were normalized to vehicle (DMSO) treated control and plotted as concentration dependent fold changes.

[5] = Liver microsomal stability (LCMS/MS); assay type: in vitro ADME; conditions: in the presence of liver microsomes
[6] = Plasma stability (LCMS/MS); assay type: in vitro ADME; conditions: incubated in plasma
[7] = biological target: T2, aryl hydrocarbon receptor (AHR) (Mus musculus, UniProt P30561); assay: XRE-driven luciferase reporter assay, mouse Hepa1c1c7; assay type: cell-based
T2 construct: Transfection was performed with 150 ng XRE-luciferase plasmid (Promega); endogenous in cells; host or cells: Hepa-1c1c7 (mouse hepatoma cell line)
Procedure: Human HepG2 or mouse Hepa-1c1c7 cells were seeded in 96 well opaque plates at 75,000 cells per well in full medium (DMEM+10% FBS) for 24 hours. Transfection was performed with 150 ng XRE-luciferase plasmid (Promega) with 4:1 Fugene to DNA ratio for 18 hours in Opti-MEM. Transfected cells were treated with AhR agonist (10^−5-10^−12) for 4.5 h in full medium. Cells were lysed and luciferase was activated using the Luciferase Assay System (Promega). Luminescence signals were measured with a FluroStar Omega microplate reader. Luminescence signals of compound treated groups were normalized to vehicle (DMSO) treated control and plotted as concentration dependent fold changes.

[8] = system: AHR-dependent transcription of the CYP1A1 gene; assay: CYP1A1 induction in human U937 cells; assay type: cell-based; conditions: Human U937, 1 μM
Procedure: as §1

AhR [9] = biological target: T3, AhR (Mus musculus, UniProt P30561); assay: AhR nuclear translocation assay, mouse Hepa-1c1c7; assay type: cell-based; conditions: mouse Hepa-1c1c7, 10 μM, 90 minutes
T3 construct: endogenous in cells; host or cells: Hepa-1c1c7 (mouse hepatoma cell line)
Procedure: (§3) Mouse Hepa-1c1c7 or human HepG2 cells were seeded in 8 well chamber slides followed by 24 hours incubation in tryptophan deficient media (HBSS with Ca^2+ and Mg^2+, 10% heat inactivated FBS, 1× non-essential amino acids, 1× sodium pyruvate, 4.5 g/L glucose). Cells were treated with vehicle control (DMSO) or 10 μM ITE, compound 108, or compound 109 for 90 minutes in tryptophan deficient media. Following treatment, cells were fixed in 4% formaldehyde and processed according to standard immunofluorescence staining protocol. Primary anti-AhR antibody was applied at 1:100 dilution (Enzo, BML-SA210) and Alexa488 conjugated secondary antibody was applied at 1:500 dilution (Cell Signaling, 4412S). Actin was stained using Alexa 568 conjugated Phalloidin (Fisher). Samples were mounted in anti-fade mounting medium supplemented with DAPI for nuclear staining and imaged with confocal microscopy (Leica SP5×MP, 63× oil lens).

AhR [10] = biological target: T4, AhR (Homo sapiens, UniProt P35869); assay: AhR nuclear translocation assay, human HepG2; assay type: cell-based; conditions: human HepG2, 10 μM, 90 minutes
T4 construct: endogenous in cells; host or cells: HepG2 (human liver cancer cell line)
T4 sequence (P35869 11-848): T1 sequence (P35869 11-848)
Procedure: as §3

[11] = within 8 h; cited from earlier work
[12] = cited from earlier work
[13] = XRE luciferase EC50, Human HepG2, least square curve fitting, >10,000 = does not reach 50% of Emax of ITE at 10 μM (highest concentration tested)
[14] = XRE luciferase EC50 (footnote a), Human HepG2, EC50 defined as concentration induced 50% of Emax of ITE

T2 sequence (P30561 10-805 limits assumed): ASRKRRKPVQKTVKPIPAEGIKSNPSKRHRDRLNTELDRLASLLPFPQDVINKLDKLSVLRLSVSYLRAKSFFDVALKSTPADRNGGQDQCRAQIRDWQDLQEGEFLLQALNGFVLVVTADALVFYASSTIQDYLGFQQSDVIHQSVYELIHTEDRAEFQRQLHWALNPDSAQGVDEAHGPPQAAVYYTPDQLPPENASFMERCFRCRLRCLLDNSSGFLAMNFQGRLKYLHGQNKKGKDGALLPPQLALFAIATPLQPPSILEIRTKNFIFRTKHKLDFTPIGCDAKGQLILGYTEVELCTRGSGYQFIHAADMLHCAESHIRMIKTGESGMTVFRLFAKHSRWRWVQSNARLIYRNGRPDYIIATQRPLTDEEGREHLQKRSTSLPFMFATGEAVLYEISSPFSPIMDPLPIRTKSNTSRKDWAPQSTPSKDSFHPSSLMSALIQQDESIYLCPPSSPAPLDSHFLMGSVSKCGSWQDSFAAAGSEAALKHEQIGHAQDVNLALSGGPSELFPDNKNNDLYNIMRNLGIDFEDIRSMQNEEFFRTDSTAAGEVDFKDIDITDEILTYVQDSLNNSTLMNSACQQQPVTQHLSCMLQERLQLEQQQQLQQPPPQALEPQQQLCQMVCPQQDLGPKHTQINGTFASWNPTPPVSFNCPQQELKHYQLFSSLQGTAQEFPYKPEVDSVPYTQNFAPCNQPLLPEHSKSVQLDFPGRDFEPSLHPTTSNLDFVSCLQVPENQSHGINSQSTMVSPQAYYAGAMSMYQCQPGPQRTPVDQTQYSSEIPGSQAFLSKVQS
T2 sequence (P53762 whole entry partner): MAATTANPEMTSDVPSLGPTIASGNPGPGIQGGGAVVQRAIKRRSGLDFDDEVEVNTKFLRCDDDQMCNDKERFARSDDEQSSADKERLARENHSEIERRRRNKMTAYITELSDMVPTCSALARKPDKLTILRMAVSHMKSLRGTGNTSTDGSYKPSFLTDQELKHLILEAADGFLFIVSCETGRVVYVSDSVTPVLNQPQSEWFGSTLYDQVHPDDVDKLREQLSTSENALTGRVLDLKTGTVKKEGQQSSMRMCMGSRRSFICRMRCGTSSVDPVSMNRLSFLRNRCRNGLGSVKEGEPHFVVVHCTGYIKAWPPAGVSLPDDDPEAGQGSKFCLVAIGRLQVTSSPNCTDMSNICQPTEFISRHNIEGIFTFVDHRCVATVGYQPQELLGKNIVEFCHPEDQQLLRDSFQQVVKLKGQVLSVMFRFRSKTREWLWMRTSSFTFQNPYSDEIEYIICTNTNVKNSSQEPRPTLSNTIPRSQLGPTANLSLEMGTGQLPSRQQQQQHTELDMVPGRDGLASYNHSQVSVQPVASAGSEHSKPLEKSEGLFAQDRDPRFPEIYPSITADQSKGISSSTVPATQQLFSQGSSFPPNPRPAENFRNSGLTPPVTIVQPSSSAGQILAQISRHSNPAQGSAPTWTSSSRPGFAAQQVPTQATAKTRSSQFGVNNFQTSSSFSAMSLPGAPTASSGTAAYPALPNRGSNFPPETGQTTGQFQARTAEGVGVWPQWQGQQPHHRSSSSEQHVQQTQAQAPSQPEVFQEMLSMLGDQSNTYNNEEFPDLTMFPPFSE
T3 sequence (P30561 10-805 limits assumed): as the sequence (P30561 10-805 limits assumed) above
T3 sequence (P53762 whole entry partner): as the sequence (P53762 whole entry partner) above

CYP1A1 induction (% of ITE ± SEM) ([1]; 50 nM)	CYP1A1 induction (% of ITE ± SEM) ([1]; 5 μM)	EC50 [4, 13]	liver microsomal stability [5]	plasma stability [6]	XRE luciferase Emax (footnote c) ([4]; Human HepG2)	EC50 [4, 14]	CYP1A1 induction (% of ITE ± SEM) [8]	SMILES	further results
124 ± 5 % of ITE	90 ± 17 % of ITE	2.3 nM	–	–	–	–	–	O=C(c1cccc(C(F)(F)F)n1)c1c[nH]c2ccccc12 [Compound 109, 1H-indol-3-yl-[6-(trifluoromethyl)-2-pyridyl]methanone]	cyp1a1 expression relative to ITE and compound 108 (cyp1a1 [2]; mouse Hepa-1c1c7, 10 nM): significantly increased cyp1a1 expression; cyp1a1 expression (qPCR) (cyp1a1 [2]; mouse Hepa-1c1c7, 10 nM-10 μM, 8 hours): induced AhR-dependent cyp1a1 expression; also recorded: dose dependent induction of cyp1a1 expression; cyp1a1 induction in liver and colon tissue (cyp1a1 [3]): induced dose-dependent cyp1a1; also recorded: Robust, dose-dependent cyp1a1 induction; cyp1a1 induction in spleen and blood (WBC) (cyp1a1 [3]): limited cyp1a1 induction was observed in spleen; also recorded: cyp1a1 regulation only at the highest administered doses; colon IL-22 expression, upregulation (DSS induced colitis): 10 fold
91 ± 7 % of ITE	97 ± 9 % of ITE	12 nM	rapidly metabolized	stable	(114)^c fold	12.1 nM	–	O=C(c1cccc(-c2ccccc2)n1)c1c[nH]c2ccccc12 [Compound 113, 1H-indol-3-yl-(6-phenyl-2-pyridyl)methanone]	–
100 % of ITE	100 % of ITE	5.3 nM	highly unstable	highly unstable	–	–	100 % of ITE	COC(=O)c1csc(C(=O)c2c[nH]c3ccccc23)n1 [ITE, 2-(1H-indol-3-ylcarbonyl)-4-thiazolecarboxylic acid methyl ester, reference compound]	EC50 [7]: 30 nM; XRE luciferase Emax (fold) [7]: 79 fold; AhR nuclear translocation (AhR [9]): localized in the nucleus; also recorded: rapid nuclear enrichment of AhR; AhR nuclear translocation (AhR [10]): localized in the nucleus; also recorded: rapid nuclear enrichment of AhR; ITE inactivated in cell culture [11]: 75%; XRE luciferase Emax (fold) ([4]; Human HepG2, fold over vehicle): 63 fold
–	–	–	–	–	–	–	–	Clc1cc2c(cc1Cl)Oc1cc(Cl)c(Cl)cc1O2 [TCDD, 2,3,7,8-tetrachlorodibenzo-p-dioxin]	half-life [12]: 2,840 days
1 ± 0.2 % of ITE	27 ± 3 % of ITE	–	–	–	(87)^c fold	2000 nM	194 ± 18 % of ITE	COc1cccc(C(=O)c2n[nH]c3ccccc23)c1 [reference compound]	–
